ChEMBL document CHEMBL1201862, “PubChem BioAssay data set” (2004)
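Assay format: 96-well plates, 48-hour exposure. Abbreviation: GI50, concentration required for 50% inhibition of growth.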 Calls of active or inactive are those of the source. No stated cut-off is given here; in the data, active = GI50 up to about 1.1 µM and inactive = higher.

What was measured:
Assay in all cases: NCI anticancer screen, dose series, 48 h
A549 = tested on: A549
ACHN = tested on: ACHN
BT-549 = tested on: BT-549
COLO 205 = tested on: COLO 205
EKVX = tested on: EKVX
HCC 2998 = tested on: HCC 2998
HCT-116 = tested on: HCT-116
HOP-92 = tested on: HOP-92
LOX IMVI = tested on: LOX IMVI
M14 = tested on: M14
MOLT-4 = tested on: MOLT-4
NCI-H522 = tested on: NCI-H522
OVCAR-5 = tested on: OVCAR-5
RPMI-8226 = tested on: RPMI-8226
SK-MEL-28 = tested on: SK-MEL-28
SK-OV-3 = tested on: SK-OV-3
SNB-19 = tested on: SNB-19
SNB-78 = tested on: SNB-78
SR = tested on: SR
T47D = tested on: T47D

| Structure (SMILES) | GI50 (A549) | GI50 (ACHN) | GI50 (BT-549) | GI50 (COLO 205) | GI50 (EKVX) | GI50 (HCC 2998) | GI50 (HCT-116) | GI50 (HOP-92) | GI50 (LOX IMVI) | GI50 (M14) | GI50 (MOLT-4) | GI50 (NCI-H522) | GI50 (OVCAR-5) | GI50 (RPMI-8226) | GI50 (SK-MEL-28) | GI50 (SK-OV-3) | GI50 (SNB-19) | GI50 (SNB-78) | GI50 (SR) | GI50 (T47D) |
| --- | --- | --- | --- | --- | --- | --- | --- | --- | --- | --- | --- | --- | --- | --- | --- | --- | --- | --- | --- | --- |
| NC(=O)c1ncn2c(=O)n(CCCl)nnc12 [MITOZOLOMIDE] | 180 µM (inactive) | 60.4 µM (inactive) | 83.2 µM (inactive) | 112 µM (inactive) | 197 µM (inactive) | 172 µM (inactive) | 132 µM (inactive) | 136 µM (inactive) | 22.8 µM (inactive) | 195 µM (inactive) | 45.2 µM (inactive) | 131 µM (inactive) | 225 µM (inactive) | 229 µM (inactive) | 252 µM (inactive) | 52.6 µM (inactive) | 93.5 µM (inactive) | 185 µM (inactive) | 47.3 µM (inactive) | 214 µM (inactive) |
| CN/N=C(/CCN1CCCC1)CC(c1ccccc1)c1c(O)c2ccccc2oc1=O (centres undefined) | > 100 µM (inactive) | > 100 µM (inactive) | > 100 µM (inactive) | 34.9 µM (inactive) | > 100 µM (inactive) | > 100 µM (inactive) | > 100 µM (inactive) | 0.804 µM (active) | > 100 µM (inactive) | > 100 µM (inactive) | > 65.3 µM (inactive) | > 100 µM (inactive) | > 100 µM (inactive) | 25.5 µM (inactive) | > 100 µM (inactive) | > 100 µM (inactive) | > 100 µM (inactive) | > 100 µM (inactive) | > 94.6 µM (inactive) | 49.4 µM (inactive) |
| Cc1cc(N(CCC#N)CCC#N)ccc1/C=C1N=C(/C=C\c2ccccc2)N(c2ccc(Cl)cc2)C\1=O | > 39.9 µM (inactive) | 8.32 µM (inactive) | 1.49 µM (inactive) | 0.745 µM (active) | > 100 µM (inactive) | 1.81 µM (inactive) | 6.76 µM (inactive) | > 95.7 µM (inactive) | 1.01 µM (active) | 1.29 µM (inactive) | 25 µM (inactive) | 24.7 µM (inactive) | 22.2 µM (inactive) | – | 5.46 µM (inactive) | > 87.1 µM (inactive) | > 100 µM (inactive) | > 100 µM (inactive) | > 100 µM (inactive) | > 100 µM (inactive) |
